According to US8859215B2, “Cell binding assay” (GE Healthcare Bio-Sciences AB, priority 2011, dated 2014):
“Also recorded” adds a separate entry of the source.

Test system: Multicellular Tumor Spheroids (MTS)
Experiment: Fluorescent cell binding assay: Cy3 Annexin V binding to drug treated cells, Western blotting, normalized to actin (apoptosis assay)
Type: cell-based
Description: Doxorubicin is an anti-cancer drugs aimed to inhibit uncontrolled cell proliferation by inducing apoptosis in cells. Multicellular Tumor Spheroids were treated with Doxorubicin and incubated with Cy 3 Annexin V. The cells are lysed and the proteins are separated and transferred to a membrane. Cy 3 Annexin V can be detected simultaneously with actin targeted by ECL Plex Cy5Western Blotting. The amount of Annexin V binding to the cells upon treatment can easily be quantified after normalization to the house-keeping protein actin.
Cancer cells, Multicellular Tumor Spheroids (MTS) (Sanitini et al. Critical Rev Oncol Hematol 2001, 36:75-87) were treated for 3 days with […] different concentrations (1 μM, 5 μM and 10 μM) of the cancer drug Doxorubicin. To determine the level of drug induced apoptosis the cells were incubated with Cy3 conjugated Annexin V. Non-bound Cy 3 Annexin V was washed away with PBS followed by cell lysis using mammalian cell protein extraction buffer (GE Healthcare). […]
The signals from bound Cy 3 Annexin V and Cy 5 actin are detected simultaneously by scanning the membrane in Cy3 and Cy5 channels using a Typhoon Imager (GE Healthcare, FIG. 2a). The image was analysed with Image Quant TL software (GE Healthcare). […] In this way any uneven sample loading is corrected for and very accurate quantification of the cells capacity to bind Annexin V is determined. […]

COc1cccc2c1C(=O)c1c(O)c3c(c(O)c1C2=O)C[C@@](O)(C(=O)CO)C[C@@H]3O[C@H]1C[C@H](N)[C@H](O)[C@H](C)O1 [Doxorubicin]
Annexin V binding to cells (signal ratio Cy3 Annexin V : Cy5 actin), indicating apoptosis (cancer cells (MTS) treated for 3 days with 1 μM, 5 μM and 10 μM, compared against control (no treatment)): dose dependent binding of Annexin V to treated cells; also recorded: dose dependent Annexin V binding to cells up to 5 μM | Annexin V binding to cells (signal ratio Cy3 Annexin V : Cy5 actin) (treatment with 10 μM for 3 days, MTS cells): decrease of the Annexin V binding
